In patent EP1893597B1, “AMPA RECEPTOR POTENTIATORS” (ELI LILLY AND COMPANY, priority 2005, dated 2006):

Target: T1, human iGluR4 (Homo sapiens, UniProt P48058)
T1 construct: expressed in transfected cells; host or cells: HEK293
Assay: Whole-cell voltage clamp potentiation of currents evoked by 1 mM glutamate in HEK293 cells stably expressing human iGluR4
Assay type: cell-based
Settings: HEK293 cells stably expressing human iGluR4, voltage-clamped at -60mV, concentration increased in half log units, fit to the Hill equation
Source text: HEK293 cells stably expressing human iGluR4 (obtained as described in European Patent Application Publication No. EP-A1-0583917) are used in the electrophysiological characterization of AMPA receptor potentiators. The extracellular recording solution contains (in mM): 140 NaCl, 5 KCl, 10 HEPES, 1 MgCl2, 2 CaCl2, 10 glucose, pH = 7.4 with NaOH, 295 mOsm kg-1. The intracellular recording solution contains (in mM): 140 CsCl, 1 MgCl2, 10 HEPES, (N-[2-hydroxyethyl]piperazine-N1-[2-ethanesulfonic acid]) 10 EGTA (ethylene-bis(oxyethylene-nitrilo)tetraacetic acid), pH = 7.2 with CsOH, 295 mOsm kg-1. With these solutions, recording pipettes have a resistance of 2-3 MΩ. […] Responses to 1 mM glutamate are then determined in the presence of test compound. […]
In order to determine the potency of test compounds, the concentration of the test compound, both in the bathing solution and co-applied with glutamate, is increased in half log units until the maximum effect was seen. […] Reversibility of test compound activity is determined by assessing control glutamate 1mM responses. Once the control responses to the glutamate challenge are re-established, the potentiation of these responses by 100 µM cyclothiazide is determined by its inclusion in both the bathing solution and the glutamate-containing solution. In this manner, the efficacy of the test compound relative to that of cyclothiazide can be determined.

T1 sequence (P48058 21-902): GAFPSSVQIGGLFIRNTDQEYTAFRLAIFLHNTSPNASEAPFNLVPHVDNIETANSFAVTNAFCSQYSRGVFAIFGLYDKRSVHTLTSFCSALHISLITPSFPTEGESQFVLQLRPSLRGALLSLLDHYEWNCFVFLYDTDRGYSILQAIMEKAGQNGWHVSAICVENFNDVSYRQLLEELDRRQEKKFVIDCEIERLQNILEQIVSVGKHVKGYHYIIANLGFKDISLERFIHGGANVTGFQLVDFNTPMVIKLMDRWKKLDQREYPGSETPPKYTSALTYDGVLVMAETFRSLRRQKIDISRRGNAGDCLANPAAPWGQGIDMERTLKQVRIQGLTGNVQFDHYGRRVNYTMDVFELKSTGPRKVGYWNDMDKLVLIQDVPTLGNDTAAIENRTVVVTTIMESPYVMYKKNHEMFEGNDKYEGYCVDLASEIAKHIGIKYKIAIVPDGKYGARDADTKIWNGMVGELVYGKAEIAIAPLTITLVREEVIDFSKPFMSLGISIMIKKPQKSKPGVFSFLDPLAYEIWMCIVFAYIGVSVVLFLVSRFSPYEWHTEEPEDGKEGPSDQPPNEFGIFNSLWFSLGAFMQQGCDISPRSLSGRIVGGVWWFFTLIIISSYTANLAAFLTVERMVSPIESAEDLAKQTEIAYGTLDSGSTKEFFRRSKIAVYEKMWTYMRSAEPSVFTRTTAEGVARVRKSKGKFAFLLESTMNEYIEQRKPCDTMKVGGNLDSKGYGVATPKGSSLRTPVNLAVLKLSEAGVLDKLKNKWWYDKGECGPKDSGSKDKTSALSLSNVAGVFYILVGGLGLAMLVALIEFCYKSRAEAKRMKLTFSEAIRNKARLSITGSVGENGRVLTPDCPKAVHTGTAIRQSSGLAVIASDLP

EC50: 445 nM
Compound: CC(C)S(=O)(=O)Nc1ccccc1-c1ccc(-c2ccc(-c3nnn[nH]3)cc2)cc1 [Example 77, Propane-2-sulfonic acid [4"-(1H-tetrazol-5-yl)-[1,1';4',1"]terphenyl-2-yl]-amide]
